In ChEMBL document CHEMBL3885861, “Open TG-GATES”:

Organism: Rattus norvegicus
Experiment: Open TG-GATES - Regimen: Daily Repeat
Assay type: toxicity, organism-based, Sprague-Dawley
Parameters: regimen Daily Repeat, gender Male, age 6 weeks
Settings: in vivo, po, 150 mg/kg, route gavage, dose level High; for APTT / Bas / Eos / Fbg / Hb / Ht / Lym / MCH / MCHC / MCV / Mono / Neu / PT / Plat / RBC / Ret / WBC: tissue Blood
[1] = 72 h, tissue Kidney, time 3 day
[2] = 72 h, tissue Plasma, time 3 day

Structure (SMILES): CC(C)C(=O)Nc1ccc([N+](=O)[O-])c(C(F)(F)F)c1 [FLUTAMIDE]
- TERMINAL_BW (72 h, time 3 day): 205.8 g
- APTT (72 h, time 3 day): 17.2 s
- Bas (72 h, time 3 day): 0%
- Eos (72 h, time 3 day): 0.8%
- Fbg (72 h, time 3 day): 219 mg/dL
- Hb (72 h, time 3 day): 14.3 g/dL
- Ht (72 h, time 3 day): 43.1%
- Lym (72 h, time 3 day): 87.4%
- MCH (72 h, time 3 day): 21.2 pg
- MCHC (72 h, time 3 day): 33.3%
- MCV (72 h, time 3 day): 63.6 fL
- Mono (72 h, time 3 day): 2.4%
- Neu (72 h, time 3 day): 8.6%
- PT (72 h, time 3 day): 12.6 s
- Plat (72 h, time 3 day): 125 x10_4/uL
- RBC (72 h, time 3 day): 677.2 x10_4/ul
- Ret (72 h, time 3 day): 3.5%
- WBC (72 h, time 3 day): 86 x10_2/uL
- KIDNEY_L [1]: 0.9 g
- KIDNEY_R [1]: 0.9 g
- KIDNEY_TOTAL [1]: 1.8 g
- LIVER (72 h, tissue Liver, time 3 day): 12.3 g
- A/G [2]: 1.7
- ALP [2]: 1049 IU/L
- ALT [2]: 35.4 IU/L
- AST [2]: 54.2 IU/L
- BUN [2]: 13.2 mg/dL
- CRE [2]: 0.5 mg/dL
- Ca [2]: 10.5 mg/dL
- Cl [2]: 103.4 meq/L
- DBIL [2]: 0.1 mg/dL
- GLC [2]: 203.2 mg/dL
- IP [2]: 7.7 mg/dL
- K [2]: 3.4 meq/L
- LDH [2]: 196.2 IU/L
- Na [2]: 141 meq/L
- PL [2]: 185.2 mg/dL
- RALB [2]: 3.6 g/dL
- TBIL [2]: 0.2 mg/dL
- TC [2]: 113.2 mg/dL
- TG [2]: 77.8 mg/dL
- TP [2]: 5.7 g/dL
- gamma-GTP [2]: 1.4 IU/L
- TERMINAL_BW ([…], time 7 day): 233.5 g
- TERMINAL_BW ([…], time 14 day): 269.7 g
- TERMINAL_BW ([…], time 28 day): 325.6 g
- APTT ([…], time 7 day): 18.2 s
- Bas ([…], time 7 day): 0%
- Eos ([…], time 7 day): 1%
- Fbg ([…], time 7 day): 224.6 mg/dL
- Hb ([…], time 7 day): 13.5 g/dL
- Ht ([…], time 7 day): 40.3%
- Lym ([…], time 7 day): 81%
- MCH ([…], time 7 day): 20.7 pg
- MCHC ([…], time 7 day): 33.4%
- MCV ([…], time 7 day): 62 fL
- Mono ([…], time 7 day): 2.8%
- Neu ([…], time 7 day): 14.6%
- PT ([…], time 7 day): 12.6 s
- Plat ([…], time 7 day): 123.7 x10_4/uL
- RBC ([…], time 7 day): 651 x10_4/ul
- Ret ([…], time 7 day): 4.3%
- WBC ([…], time 7 day): 111.1 x10_2/uL
- APTT ([…], time 14 day): 18.9 s
- Bas ([…], time 14 day): 0%
- Eos ([…], time 14 day): 1%
- Fbg ([…], time 14 day): 228.2 mg/dL
- Hb ([…], time 14 day): 13.9 g/dL
- Ht ([…], time 14 day): 41.5%
- Lym ([…], time 14 day): 79.4%
- MCH ([…], time 14 day): 19.9 pg
- MCHC ([…], time 14 day): 33.6%
- MCV ([…], time 14 day): 59.3 fL
- Mono ([…], time 14 day): 3.2%
- Neu ([…], time 14 day): 15.2%
- PT ([…], time 14 day): 12.9 s
- Plat ([…], time 14 day): 115.7 x10_4/uL
- RBC ([…], time 14 day): 699.6 x10_4/ul
- Ret ([…], time 14 day): 4.5%
- WBC ([…], time 14 day): 115.1 x10_2/uL
- APTT ([…], time 28 day): 18.2 s
- Bas ([…], time 28 day): 0%
- Eos ([…], time 28 day): 1.2%
- Fbg ([…], time 28 day): 237 mg/dL
- Hb ([…], time 28 day): 13.7 g/dL
- Ht ([…], time 28 day): 39.9%
